molecular target: MetAP-2 (Homo sapiens, UniProt P50579); test: MetAP-2 activity measurement (coupled enzymatic reactions, Met-Arg-Ser substrate, dianisidine detection at 450 nm); type: biochemical; settings: Inhibition of MetAP-2; read-out: IC50 enzyme
How it was run: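 Coupled continuous assay with Met-Arg-Ser tripeptide substrate: released methionine oxidised by L-amino acid oxidase to give H2O2, which peroxidase uses to oxidise dianisidine, followed at 450 nm. Activity taken as slope of absorbance versus time over the visually linear region; dianisidine extinction coefficient converts to mol Met per time.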

Sequence of MetAP-2 (P50579 whole entry, species assumed): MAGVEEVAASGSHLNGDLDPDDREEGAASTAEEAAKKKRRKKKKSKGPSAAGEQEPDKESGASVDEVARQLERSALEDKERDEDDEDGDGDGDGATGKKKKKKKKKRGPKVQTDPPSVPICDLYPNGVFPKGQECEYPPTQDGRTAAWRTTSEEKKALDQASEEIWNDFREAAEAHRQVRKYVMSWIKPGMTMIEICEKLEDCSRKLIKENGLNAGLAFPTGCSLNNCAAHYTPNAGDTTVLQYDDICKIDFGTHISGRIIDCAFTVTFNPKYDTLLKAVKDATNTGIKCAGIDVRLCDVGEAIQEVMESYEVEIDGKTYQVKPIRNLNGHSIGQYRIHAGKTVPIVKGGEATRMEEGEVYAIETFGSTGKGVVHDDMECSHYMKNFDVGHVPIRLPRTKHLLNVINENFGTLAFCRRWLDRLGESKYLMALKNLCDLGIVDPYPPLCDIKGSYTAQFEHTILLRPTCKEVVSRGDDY

| Compound | IC50 |
| --- | --- |
| CN(c1cccc(N2CCC(O)(C(=O)NCc3cc(F)cc(Cl)c3)C2=O)c1)S(C)(=O)=O (stereo not shown) [A73, N-(3-Chloro-5-fluorobenzyl)-3-hydroxy-1-[3-(methanesulfonyl-methylamino)phenyl]-2-oxo-pyrrolidine-3-carboxamide] | 10 to 1000 nM |
| O=C(NCc1cc(F)cc(Cl)c1)C1(O)CCN(CC2CNC2)C1=O (stereo not shown) [A218, N-(3-Chloro-5-fluorobenzyl)-1-azetidin-3-ylmethyl-3-hydroxy-2-oxopyrrolidine-3-carboxamide] | > 10000 nM |
| CN(CCO)C(=O)c1cccc(N2CC[C@@](O)(C(=O)NCc3cc(F)cc(Cl)c3)C2=O)c1 [A102, N-(3-Chloro-5-fluorobenzyl)-(R)-3-hydroxy-1-{3-[(2-hydroxy-ethyl)methylcarbamoyl]phenyl}-2-oxopyrrolidine-3-carboxamide] | 1000 to 10000 nM |
| CN(c1cccc(N2CC[C@@](O)(C(=O)NCc3cc(F)cc(Cl)c3)C2=O)c1)S(C)(=O)=O [A166, N-(3-Chloro-5-fluorobenzyl)-(R)-3-hydroxy-1-[3-(methane-sulfonylmethylamino)phenyl]-2-oxopyrrolidine-3-carboxamide] | 1000 to 10000 nM |
| CC(=O)Nc1ccc(N2CCC(O)(C(=O)NCCc3cc(F)cc(F)c3)C2=O)cn1 (stereo not shown) [A188, N-[2-(3,5-Difluorophenyl)ethyl]-1-(6-acetylaminopyridin-3-yl)-3-hydroxy-2-oxopyrrolidine-3-carboxamide] | 10 to 1000 nM |
| CNC(=O)[C@H]1CC[C@H](N2CCC(O)(C(=O)NCc3cc(F)cc(Cl)c3)C2=O)CC1 (stereo partly shown) [A157, N-(3-Chloro-5-fluorobenzyl)-3-hydroxy-1-(4-methylcarbamoyl-cyclohexyl)-2-oxopyrrolidine-3-carboxamide] | 1000 to 10000 nM |
| O=C(NCCc1ccc(Oc2ccccc2)cc1)[C@@]1(O)CCN(c2ccccc2)C1=O [A60, N-[2-(4-Phenoxyphenyl)ethyl]-(S)-3-hydroxy-2-oxo-1-phenyl-pyrrolidine-3-carboxamide] | > 10000 nM |
| O=C1CCc2cc(N3CCC(O)(C(=O)NCCc4ccccc4F)C3=O)ccc2N1 (stereo not shown) [A184, N-[2-(2-Fluorophenyl)ethyl]-3-hydroxy-2-oxo-1-(2-oxo-1,2,3,4-tetrahydroquinolin-6-yl)-pyrrolidine-3-carboxamide] | 10 to 1000 nM |
| O=C1CCc2cc(N3CC[C@](O)(C(=O)NCc4ccc(F)cc4Cl)C3=O)ccc2N1 [A242, N-(2-Chloro-4-fluorobenzyl)-(S)-3-hydroxy-2-oxo-1-(2-oxo-1,2,3,4-tetrahydroquinolin-6-yl)-pyrrolidine-3-carboxamide] | 10 to 1000 nM |
| CN(C)CCCNC(=O)[C@@]1(O)CCN(c2ccccc2)C1=O [A64, N-(3-Dimethylaminopropyl)-(S)-3-hydroxy-2-oxo-1-phenylpyrrolidine-3-carboxamide] | > 10000 nM |
| O=C(CN1CCC(O)(C(=O)NCc2cc(F)cc(Cl)c2)C1=O)Nc1ccccc1 (stereo not shown) [A187, N-(3-Chloro-5-fluorobenzyl)-3-hydroxy-2-oxo-1-phenyl-carbamoylmethylpyrrolidine-3-carboxamide] | 1000 to 10000 nM |
| CC1CC(O)(C(=O)NCc2cc(F)cc(Cl)c2)C(=O)N1c1ccccc1 (stereo not shown) [A119, N-(3-chloro-5-fluorobenzyl)-3-hydroxy-5-methyl-2-oxo-1-phenylpyrrolidine-3-carboxamide] | 1000 to 10000 nM |
| CCC(=O)Nc1ccc(N2CCC(O)(C(=O)NCc3cc(F)cc(Cl)c3)C2=O)cn1 (stereo not shown) [A78, N-(3-Chloro-5-fluorobenzyl)-3-hydroxy-2-oxo-1-(6-propionylaminopyridin-3-yl)-pyrrolidine-3-carboxamide] | 10 to 1000 nM |
| C=C(Cc1ccccc1)C(=O)C1(O)CCN(c2ccccc2)C1=O (stereo not shown) [A89, 3-(2-benzylacryloyl)-3-hydroxy-1-phenylpyrrolidin-2-one] | > 10000 nM |
| NC(=O)c1c[nH]c2ccc(N3CC[C@](O)(C(=O)NCc4cc(F)cc(Cl)c4)C3=O)cc12 [A238, 5-[(S)-3-(3-Chloro-5-fluorobenzylcarbamoyl)-3-hydroxy-2-oxopyrrolidin-1-yl]-1H-indole-3-carboxamide] | 10 to 1000 nM |
| COC(=O)c1cc(N2CCC(O)(C(=O)NCc3cc(F)cc(Cl)c3)C2=O)cnc1C (stereo not shown) [A100, Methyl 5-[3-(3-chloro-5-fluorobenzylcarbamoyl)-3-hydroxy-2-oxopyrrolidin-1-yl]-2-methylnicotinate] | 10 to 1000 nM |
| O=C(NCc1cc(F)cc(Cl)c1)C1(O)CCN(c2ccc3c(c2)c(C(F)(F)F)cn3CO)C1=O (stereo not shown) [A112, N-(3-Chloro-5-fluorobenzyl)-3-hydroxy-1-(1-hydroxymethyl-3-trifluoromethyl-1H-indol-5-yl)-2-oxopyrrolidine-3-carboxamide] | 10 to 1000 nM |
| O=C(NCc1cc(F)cc(Cl)c1)C1(O)CCN(c2ccc3cc[nH]c3c2)C1=O (stereo not shown) [A68, N-(3-Chloro-5-fluorobenzyl)-3-hydroxy-1-(1H-indol-6-yl)-2-oxo-pyrrolidine-3-carboxamide] | 10 to 1000 nM |

The next lines start with the values.

| IC50 | Compound |
| --- | --- |
| > 10000 nM | Cc1cc(CNC(=O)C2(O)CCCN(Cc3ccc(F)c(F)c3)C2=O)no1 (stereo not shown) [A258, N-(5-Methylisoxazol-3-ylmethyl)-1-(3,4-difluorobenzyl)-3-hydroxy-2-oxopiperidine-3-carboxamide] |
| > 10000 nM | O=C1N(Cc2ccccc2)CCC1(O)C(=O)N1Cc2ccccc2C1 (stereo not shown) [A268, 1-benzyl-3-(1,3-dihydroisoindole-2-carbonyl)-3-hydroxypyrrolidin-2-one] |
| 1000 to 10000 nM | O=C(NCc1cc(F)cc(Cl)c1)C1(O)CCN(Cc2c[nH]cn2)C1=O (stereo not shown) [A279, N-(3-Chloro-5-fluorobenzyl)-3-hydroxy-1-(1H-imidazol-4-ylmethyl)-2-oxopyrrolidine-3-carboxamide] |
| > 10000 nM | O=C(NCc1cc(F)cc(Cl)c1)[C@]1(O)CCN(OCc2ccccc2)C1=O [B138, N-(3-Chloro-5-fluorobenzyl)-(R)-1-benzyloxy-3-hydroxy-2-oxo-pyrrolidine-3-carboxamide] |
| 1000 to 10000 nM | CS(=O)(=O)N1CC[C@H](N2CCC(O)(C(=O)NCc3cc(F)cc(Cl)c3)C2=O)C1 (stereo partly drawn) [A281, N-(3-Chloro-5-fluorobenzyl)-(S)-3-hydroxy-1′-methanesulfonyl-2-oxo[1,3′]bipyrrolidinyl-3-carboxamide] |
| > 10000 nM | OC1(CNCc2cccc(F)c2)CCCN(Cc2ccccc2)C1 (stereo not shown) [B20, 1-Benzyl-3-[(3-fluorobenzylamino)methyl]-piperidin-3-ol] |
| 10 to 1000 nM | O=C(NCc1cc(F)cc(Cl)c1)[C@@]1(O)CCN(c2ccc3[nH]c(=O)sc3c2)C1=O [B77, N-(3-Chloro-5-fluorobenzyl)-(S)-3-hydroxy-2-oxo-1-(2-oxo-2,3-dihydrobenzothiazol-6-yl)-pyrrolidine-3-carboxamide] |
| 10 to 1000 nM | O=C(NCc1cccc(F)c1)[C@@]1(O)CCCN(Cc2cccc(F)c2F)C1=O [A254, N-(3-Fluorobenzyl)-(S)-1-(2,3-difluorobenzyl)-3-hydroxy-2-oxo-piperidine-3-carboxamide] |
| 10 to 1000 nM | Cc1ccc(CNCC2(O)CCN(c3ccccc3)C2=O)cc1 (stereo not shown) [B49, 3-Hydroxy-3-[(4-methyl-benzylamino)methyl]-1-phenyl-pyrrolidin-2-one] |
| 1000 to 10000 nM | O=C(NCc1cc(F)cc(F)c1)C1(O)CCCN(CC2CCC2)C1=O (stereo not shown) [A252, N-(3,5-Difluorobenzyl)-1-cyclobutylmethyl-3-hydroxy-2-oxopiperidine-3-carboxamide] |
